From patent US11981701B2, “PRMT5 inhibitors” (Merck Sharp & Dohme LLC, priority 2018, dated 2024)
Counter-ions that a name gives are not always drawn. Like-named read-outs stand apart in the source and are kept apart here.

Legend:
[1] = target: T1, PRMT5 (Homo sapiens, UniProt O14744); experiment: PRMT5 Cell Target Engagement (TE) Assay; assay type: cell-based; conditions: MCF-7 cells, treated for 3 days, symmetrically dimethylated (SDMA) nuclear proteins by high content imaging; top concentration 10000 nM
T1 construct: seeded with 4000 MCF-7 cells; endogenous in cells; host or cells: MCF-7 cells
Text: The PRMT5 TE assay is a biomarker assay for identifying compounds that inhibit symmetric dimethylation of arginine (SDMA) of PRMT5 substrates. The following substrates have been reported for PRMT5: histone H2A and H4 R3, Histone H3 R2, Histone H3 R8, spliceosome Sm proteins, ribosomal protein RPS10, p53, FEN1, nucleoplasmin, nucleolin, EGFR and EBNA. The assay will focus on detecting symmetrically dimethylated nuclear proteins using high content imaging technology. Detection of the expression of symmetrically dimethylated nuclear proteins is through a mixture of primary rabbit monoclonal antibodies to SDMA (CST 13222), which in turn recognized by an Alexafluor 488 dye-conjugated anti-rabbit IgG secondary antibody. The IN Cell Analyzer 2200 or Opera-Phenix measures nuclear Alexafluor 488 fluorescent dye intensity that is directly related to the level of expression of symmetrically dimethylated nuclear proteins at the single cell level. Nuclear AF488 dye intensities are compared to the mean value for DMSO treated cells (MIN) to report percent of inhibition for each compound-treated well. In this assay, the cell potency (EC50) of each compound was determined from a ten point (1:3 serial dilution; top compound concentration of 10000 nM) titration curve using the following outlined procedure. Each well of a BD falcon collagen coated black/clear bottom 384-well plate was seeded with 4000 MCF-7 cells in 30 μl media and allowed to attach for 5 h. Media is ATCC-formulated Eagle's Minimum Essential Medium, Catalog No. 30-2003. To make the complete growth medium, add the following components to the base medium: 0.01 mg/ml human recombinant insulin; fetal bovine serum to a final concentration of 10%. Additional 30 μl of media containing 2× compounds were added to each well. Cells were treated for 3 days in 37° C. CO2 incubator. On day 3, cells were fixed with Cytofix, permeabilized with 0.4% Triton-X-100/Cytofix, and washed with D-PBS without Ca/Mg. Cells were blocked with Licor Odessey blocking reagent for 1 h at room temperature, followed by incubation with anti-SDMA (1:1000) antibody at 4° C. overnight. 1° antibody was removed, followed by three washings with DPBS without Ca/Mg and 0.05% Tween20. Hoechst (5 μg/ml), Cell Mask deep stain (1:2000) and Alexa488-conjugated goat anti-rabbit IgG (2 μg/mL) was added for 1 hour at room temperature. A final washing step (three washes) was performed before sealing plate for imaging on In Cell Analyzer 2200 or Opera-Phenix. Images from analyzer were uploaded to Columbus (at WP or BOS) for image analysis. IC50 values were determined by 4 parameters robust fit of percent fluorescence units vs. (Log10) compound concentrations.

[2] = target: T2, Full-length (FL)-PRMT5-MEP50 enzyme complex (Homo sapiens, UniProt O14744); experiment: PRMT5-MEP50 Enzyme Methylation Assay; assay type: biochemical; conditions: 1.0 nM PRMT5-MEP50, 75 nM biotinylated H4R3(Me1) peptide, 15 μM SAM, 60 min pre-incubation, 150 min at 37° C.
T2 construct: 1.25 nM of Full-length (FL)-PRMT5-MEP50 enzyme complex; made in house; host or cells: baculovirus-transfected Sf21 cells
Experimental: PRMT5/MEP50 biochemical assay is a direct measurement of the methylation activity of the enzyme complex on a short peptide substrate derived from the N-terminus of H4 histone. Methylation experiment is performed with recombinant protein. The assessment of inhibitory effect (IC50) of small molecules is measured by the effectiveness of the compounds to inhibit this reaction.
In this assay, the potency (IC50) of each compound was determined from a twenty-point (1:2 serial dilution; top compound concentration of 100000 nM) titration curve using the following outlined procedure. To each well of a white ProxiPlus 384 well-plate, 100 nL of compound (1% DMSO in final assay volume of 10 μL) was dispensed, followed by the addition of 8 μL of 1× assay buffer (50 mM Bicine pH 8.0, 1 mM DTT, 0.004% Tween20, 0.01% BSA) containing 1.25 nM of Full-length (FL)-PRMT5-MEP50 enzyme complex (recombinant proteins from baculovirus-transfected Sf21 cells: FL-PRMT5; MW=[…] and FL-MEP50; MW=38614) and 1 μL of 150 μM S-(5′-Adenosyl)-L-Methionine Chloride (SAM). Plates were sealed and placed in a 37° C. humidified chamber for a 60 min pre-incubation with compound. Subsequently, each reaction was initiated by the addition of 1 μL 1× assay buffer containing 750 nM biotinylated H4R3(Me1) peptide. The final reaction in each well of 10 μL consists of 1.0 nM PRMT5-MEP50, 75 nM biotinylated-peptide, and 15 μM SAM. Methylation reactions were allowed to proceed for 150 min in a sealed plate at 37° C. Reactions were immediately quenched by the addition of 1 μL of 5% formic acid. Plates were then frozen and shipped to SAMDI™ Tech Inc. to determine the percent conversion from H4R3(Me1) to H4R3(Me2). IC50 values were determined by a 7 parameter biphasic fit model plotting the percent Effect (based on product conversion) vs. (Log10) compound concentrations.

[3] = first value of 7 parameter biphasic fit, read-out: Enzyme Methylation Assay EC50_1
[4] = second value of 7 parameter biphasic fit, read-out: Enzyme Methylation Assay EC50_2

T2 sequence (O14744 whole entry): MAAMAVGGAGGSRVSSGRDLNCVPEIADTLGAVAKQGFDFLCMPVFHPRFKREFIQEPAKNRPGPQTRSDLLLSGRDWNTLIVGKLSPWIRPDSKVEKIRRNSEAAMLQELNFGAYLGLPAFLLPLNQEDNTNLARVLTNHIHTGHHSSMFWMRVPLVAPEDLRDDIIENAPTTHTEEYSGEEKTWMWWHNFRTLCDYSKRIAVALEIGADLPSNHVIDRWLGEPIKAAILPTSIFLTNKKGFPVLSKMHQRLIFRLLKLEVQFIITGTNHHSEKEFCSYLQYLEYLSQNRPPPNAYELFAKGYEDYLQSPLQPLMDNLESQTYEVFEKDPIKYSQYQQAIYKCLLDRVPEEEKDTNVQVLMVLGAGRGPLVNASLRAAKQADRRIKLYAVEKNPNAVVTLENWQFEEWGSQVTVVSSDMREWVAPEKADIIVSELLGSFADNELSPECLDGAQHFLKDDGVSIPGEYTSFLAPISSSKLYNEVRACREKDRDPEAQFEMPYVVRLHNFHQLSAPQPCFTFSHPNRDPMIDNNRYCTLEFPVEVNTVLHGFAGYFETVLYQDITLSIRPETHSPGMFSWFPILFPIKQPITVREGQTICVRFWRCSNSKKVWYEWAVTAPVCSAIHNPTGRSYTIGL
T2 sequence (Q9BQA1 whole entry partner): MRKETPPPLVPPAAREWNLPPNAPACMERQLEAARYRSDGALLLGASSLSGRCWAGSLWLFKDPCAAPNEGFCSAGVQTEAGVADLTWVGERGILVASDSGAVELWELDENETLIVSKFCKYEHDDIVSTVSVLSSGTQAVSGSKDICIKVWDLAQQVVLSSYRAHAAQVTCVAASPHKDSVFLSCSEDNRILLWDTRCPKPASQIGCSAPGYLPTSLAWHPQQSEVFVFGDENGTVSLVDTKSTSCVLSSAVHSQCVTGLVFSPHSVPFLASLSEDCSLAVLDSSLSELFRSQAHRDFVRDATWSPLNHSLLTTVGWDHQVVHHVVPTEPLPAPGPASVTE
T1 sequence (O14744 whole entry): as the sequence (O14744 whole entry) above
T1 sequence (Q9BQA1 whole entry partner): as the sequence (Q9BQA1 whole entry partner) above

SMILES | EC50 [1] [nM] | EC50 [2, 3] [nM] | EC50 [2, 4] [nM]
Nc1nc2cc(OC[C@H]3O[C@@H](n4cnc(N)c5ncnc4-5)[C@H](O)[C@@H]3O)ccc2cc1Br [Example 1, 3-[5-O-(2-amino-3-bromo-7-quinolinyl)-b-D-ribofuranosyl]-3H-purin-6-amine] | 60.6 | 1.37 | 85.1
Nc1ccn([C@@H]2O[C@H](COc3ccc4cc(Br)c(N)nc4c3)[C@@H](O)[C@H]2O)c2ncnc1-2 [Example 2, 4-[5-O-(2-amino-3-bromo-7-quinolinyl)-b-D-ribofuranosyl]-4H-imidazo[4,5-b]pyridin-7-amine] | 19.2 | 0.662 | 18.3
Nc1nc2cc(OC[C@H]3O[C@@H](n4nc5ncnc-5c(N)n4)[C@H](O)[C@@H]3O)ccc2cc1Br [Example 3, 2-[5-O-(2-amino-3-bromo-7-quinolinyl)-b-D-ribofuranosyl]-2H-imidazo[4,5-d][1,2,3]triazin-4-amine trifluoroacetate] | > 10000 | 1620 | –
Nc1ccn([C@@H]2C[C@H](CCc3ccc4ccc(NCC(F)F)nc4c3)[C@@H](O)[C@H]2O)c2ncnc1-2 [Example 7, (1R,2S,3R,5S)-3-(7-amino-4H-imidazo[4,5-b]pyridin-4-yl)-5-(2-{2-[(2,2-difluoroethyl)amino]-7-quinolinyl}ethyl)-1,2-cyclopentanediol] | 16.1 | 0.231 | –
Cc1ccn([C@@H]2C[C@H](CCc3ccc4ccc(NCC(F)F)nc4c3)[C@@H](O)[C@H]2O)c2ncnc1-2 [Example 8, (1S,2R,3S,5R)-3-(2-{2-[(2,2-difluoroethyl)amino]-7-quinolinyl}ethyl)-5-(7-methyl-4H-imidazo[4,5-b]pyridin-4-yl)-1,2-cyclopentanediol] | 1.94 | 0.253 | –
Cc1ccn([C@@H]2O[C@H](CCc3ccc4cc(Br)c(N)nc4c3)[C@@H](O)[C@H]2O)c2ncnc1-2 [Example 12, (2R,3S,4R,5R)-2-(2-(2-amino-3-bromoquinolin-7-yl)ethyl)-5-(7-methyl-4H-imidazo [4,5-b]pyridin-4-yl)tetrahydrofuran-3,4-diol] | 1.7 | 0.58 | –
Cc1ccn([C@@H]2C[C@H](COc3ccc4cc(Br)c(N)nc4c3)[C@@H](O)[C@H]2O)c2ncnc1-2 [Example 13, (1S,2R,3R,5R)-3-(((2-amino-3-bromoquinolin-7-yl)oxy)methyl)-5-(7-methyl-4H-imidazo[4,5-b]pyridin-4-yl)cyclopentane-1,2-diol] | 61.5 | 0.404 | –

More lines, now with the values ahead:

EC50 [1] [nM] | EC50 [2, 3] [nM] | EC50 [2, 4] [nM] | SMILES
2.54 | 0.489 | – | Nc1ccn([C@@H]2C[C@H](CCc3ccc4cc(Br)c(N)nc4c3)[C@@H](O)[C@H]2O)c2ncnc1-2 [Example 4, (1S,2R,3S,5R)-3-[2-(2-amino-3-bromo-7-quinolinyl)ethyl]-5-(7-amino-4H-imidazo[4,5-b]pyridin-4-yl)-1,2-cyclopentanediol]
0.508 | 0.32 | – | Cc1ccn([C@@H]2C[C@H](CCc3ccc4cc(Br)c(N)nc4c3)[C@@H](O)[C@H]2O)c2ncnc1-2 [Example 5, (1S,2R,3S,5R)-3-[2-(2-amino-3-bromo-7-quinolinyl)ethyl]-5-(7-methyl-4H-imidazo[4,5-b]pyridin-4-yl)-1,2-cyclopentanediol]
1.69 | 0.264 | – | Nc1nc2cc(CC[C@H]3C[C@@H](n4cnc(N)c5ncnc4-5)[C@H](O)[C@@H]3O)ccc2cc1Br [Example 6, (1S,2R,3S,5R)-3-[2-(2-amino-3-bromo-7-quinolinyl)ethyl]-5-(6-amino-3H-purin-3-yl)-1,2-cyclopentanediol hydrochloride]
1.05 | 0.282 | – | Cc1ncn([C@@H]2C[C@H](CCc3ccc4cc(Br)c(N)nc4c3)[C@@H](O)[C@H]2O)c2ncnc1-2 [Example 9, (1S,2R,3S,5R)-3-[2-(2-amino-3-bromo-7-quinolinyl)ethyl]-5-(6-methyl-3H-purin-3-yl)-1,2-cyclopentanediol]
116 | 1.62 | – | Cc1cc2ncnc-2n([C@@H]2C[C@H](CCc3ccc4cc(Br)c(N)nc4c3)[C@@H](O)[C@H]2O)c1 [Example 10, (1S,2R,3S,5R)-3-[2-(2-amino-3-bromo-7-quinolinyl)ethyl]-5-(6-methyl-4H-imidazo[4,5-b]pyridin-4-yl)-1,2-cyclopentanediol trifluoroacetate]
30.2 | 0.96 | – | CCc1cc2ncnc-2n([C@@H]2C[C@H](CCc3ccc4cc(Br)c(N)nc4c3)[C@@H](O)[C@H]2O)c1 [Example 11, (1S,2R,3S,5R)-3-[2-(2-amino-3-bromo-7-quinolinyl)ethyl]-5-(6-ethyl-4H-imidazo[4,5-b]pyridin-4-yl)-1,2-cyclopentanediol trifluoroacetate]
